≈ marks a conversion by molar mass, not a printed value. Calls of active or inactive are those of the source. The rule behind the calls is not given here.
Tested on: DU-145
Assay: Cytotoxicity against human DU145 cells after 48 hrs by sulforhodamine B assay
Format: functional
Settings: DU-145, 48 h

SMILES	GI50 [µg/mL]
O=[N+]([O-])/C=C/c1ccc2c(c1)OCO2	1.8 (≈ 9.32 µM)
O=[N+]([O-])/C=C/c1c[nH]c2ccccc12	1.3 (≈ 6.91 µM)

Tested on: MCF7
Assay: Cytotoxicity against human MCF7 cells after 48 hrs by sulforhodamine B assay
Format: functional
Settings: MCF7, 48 h

SMILES	GI50 [µg/mL]
O=[N+]([O-])/C=C/c1ccc2c(c1)OCO2	0.58 (≈ 3 µM)
O=[N+]([O-])/C=C/c1c[nH]c2ccccc12	0.4 (≈ 2.13 µM)

Tested on: Enterococcus faecalis
Assay: Antimicrobial activity against Enterococcus faecalis ATCC 29212 assessed clear zone in inhibition per disk by CLSI disk diffusion susceptibility assay
Format: functional
Settings: not given

SMILES	MIC [µg]
O=[N+]([O-])/C=C/c1ccc2c(c1)OCO2	6.25
O=[N+]([O-])/C=C/c1c[nH]c2ccccc12	>100

Tested on: SF-295
Assay: Cytotoxicity against human SF295 cells after 48 hrs by sulforhodamine B assay
Format: functional
Settings: not given

SMILES	GI50
O=[N+]([O-])/C=C/c1ccc2c(c1)OCO2	inactive
O=[N+]([O-])/C=C/c1c[nH]c2ccccc12	inactive

Tested on: Streptococcus pneumoniae
Assay: Antimicrobial activity against Streptococcus pneumoniae ATCC 6303 after 24 hrs by broth microdilution susceptibility assay
Format: functional
Settings: ATCC 6303, 24 h

SMILES	MBC [µg/mL]
O=[N+]([O-])/C=C/c1ccc2c(c1)OCO2	32 (≈ 166 µM)
O=[N+]([O-])/C=C/c1c[nH]c2ccccc12	> 64

Tested on: P388
Assay: Cytotoxicity against mouse P388 cells after 48 hrs by sulforhodamine B assay
Format: functional
Settings: P388, 48 h, read-out: ED50 (the source's name)

SMILES	EC50 [µg/mL]
O=[N+]([O-])/C=C/c1ccc2c(c1)OCO2	2 (≈ 10.4 µM)
O=[N+]([O-])/C=C/c1c[nH]c2ccccc12	3.7 (≈ 19.7 µM)

Tested on: Micrococcus luteus
Assay: Antimicrobial activity against Micrococcus luteus Presque Isle 456 assessed clear zone in inhibition per disk by CLSI disk diffusion susceptibility assay
Format: functional
Settings: not given

SMILES	MIC [µg]
O=[N+]([O-])/C=C/c1ccc2c(c1)OCO2	50
O=[N+]([O-])/C=C/c1c[nH]c2ccccc12	50

Tested on: Candida albicans
Assay: Antimicrobial activity against Candida albicans ATCC 90028 assessed clear zone in inhibition per disk by CLSI disk diffusion susceptibility assay
Format: functional
Settings: not given

SMILES	MIC [µg]
O=[N+]([O-])/C=C/c1ccc2c(c1)OCO2	1.56
O=[N+]([O-])/C=C/c1c[nH]c2ccccc12	12.5

Tested on: SF-268
Assay: Cytotoxicity against human SF268 cells after 48 hrs by sulforhodamine B assay
Format: functional
Settings: SF-268, 48 h

SMILES	GI50 [µg/mL]
O=[N+]([O-])/C=C/c1ccc2c(c1)OCO2	1.9 (≈ 9.84 µM)
O=[N+]([O-])/C=C/c1c[nH]c2ccccc12	1.9 (≈ 10.1 µM)

Tested on: Neisseria gonorrhoeae
Assay: Antimicrobial activity against Neisseria gonorrhoeae ATCC 49226 assessed clear zone of inhibition measured per disk by CLSI disk diffusion susceptibility assay
Format: functional
Settings: not given

SMILES	MIC [µg]
O=[N+]([O-])/C=C/c1ccc2c(c1)OCO2	<0.78
O=[N+]([O-])/C=C/c1c[nH]c2ccccc12	3.12

Tested on: Streptococcus pneumoniae
Assay: Antimicrobial activity against Streptococcus pneumoniae ATCC 6303 assessed clear zone in inhibition per disk by CLSI disk diffusion susceptibility assay
Format: functional
Settings: not given

SMILES	MIC [µg]
O=[N+]([O-])/C=C/c1ccc2c(c1)OCO2	0.78
O=[N+]([O-])/C=C/c1c[nH]c2ccccc12	12.5

Tested on: Enterobacter cloacae
Assay: Antimicrobial activity against Enterobacter cloacae ATCC 13047 by broth microdilution susceptibility assay
Format: functional
Settings: not given

SMILES	MIC [µg/mL]
O=[N+]([O-])/C=C/c1ccc2c(c1)OCO2	> 64
O=[N+]([O-])/C=C/c1c[nH]c2ccccc12	> 64

Tested on: BXPC-3
Assay: Cytotoxicity against human BxPC3 cells after 48 hrs by sulforhodamine B assay
Format: functional
Settings: BXPC-3, 48 h

SMILES	GI50 [µg/mL]
O=[N+]([O-])/C=C/c1ccc2c(c1)OCO2	1.7 (≈ 8.8 µM)
O=[N+]([O-])/C=C/c1c[nH]c2ccccc12	1.4 (≈ 7.44 µM)

Tested on: Neisseria gonorrhoeae
Assay: Antimicrobial activity against Neisseria gonorrhoeae ATCC 49226 by broth microdilution susceptibility assay
Format: functional
Settings: not given

SMILES	MIC [µg/mL]
O=[N+]([O-])/C=C/c1ccc2c(c1)OCO2	1 (≈ 5.18 µM)
O=[N+]([O-])/C=C/c1c[nH]c2ccccc12	8 (≈ 42.5 µM)

Tested on: Staphylococcus aureus
Assay: Antimicrobial activity against Staphylococcus aureus ATCC 29213 assessed clear zone in inhibition per disk by CLSI disk diffusion susceptibility assay
Format: functional
Settings: not given

SMILES	MIC [µg]
O=[N+]([O-])/C=C/c1ccc2c(c1)OCO2	6.25
O=[N+]([O-])/C=C/c1c[nH]c2ccccc12	>100

Tested on: Staphylococcus aureus
Assay: Antimicrobial activity against Staphylococcus aureus ATCC 29213 after 24 hrs by broth microdilution susceptibility assay
Format: functional
Settings: ATCC 29213, 24 h

SMILES	MBC [µg/mL]
O=[N+]([O-])/C=C/c1ccc2c(c1)OCO2	> 64
O=[N+]([O-])/C=C/c1c[nH]c2ccccc12	> 64

Tested on: Escherichia coli
Assay: Antimicrobial activity against Escherichia coli ATCC 25922 after 24 hrs by broth microdilution susceptibility assay
Format: functional
Settings: ATCC 25922, 24 h

SMILES	MBC [µg/mL]
O=[N+]([O-])/C=C/c1ccc2c(c1)OCO2	> 64

Tested on: Streptococcus pneumoniae
Assay: Antimicrobial activity against Streptococcus pneumoniae ATCC 6303 by broth microdilution susceptibility assay
Format: functional
Settings: not given

SMILES	MIC [µg/mL]
O=[N+]([O-])/C=C/c1ccc2c(c1)OCO2	16 (≈ 82.8 µM)
O=[N+]([O-])/C=C/c1c[nH]c2ccccc12	64 (≈ 340 µM)

Tested on: Escherichia coli
Assay: Antimicrobial activity against Escherichia coli ATCC 25922 by broth microdilution susceptibility assay
Format: functional
Settings: not given

SMILES	MIC [µg/mL]
O=[N+]([O-])/C=C/c1ccc2c(c1)OCO2	64 (≈ 331 µM)
O=[N+]([O-])/C=C/c1c[nH]c2ccccc12	> 64

Tested on: Candida albicans
Assay: Antifungal activity against Candida albicans ATCC 90028 after 48 hrs by broth microdilution susceptibility assay
Format: functional
Settings: ATCC 90028, 48 h

SMILES	MIC [µg/mL]
O=[N+]([O-])/C=C/c1ccc2c(c1)OCO2	8 (≈ 41.4 µM)
O=[N+]([O-])/C=C/c1c[nH]c2ccccc12	32 (≈ 170 µM)

Tested on: Enterococcus faecalis
Assay: Antimicrobial activity against Enterococcus faecalis ATCC 29212 by broth microdilution susceptibility assay
Format: functional
Settings: not given

SMILES	MIC [µg/mL]
O=[N+]([O-])/C=C/c1ccc2c(c1)OCO2	64 (≈ 331 µM)
O=[N+]([O-])/C=C/c1c[nH]c2ccccc12	64 (≈ 340 µM)

Tested on: Neisseria gonorrhoeae
Assay: Antimicrobial activity against Neisseria gonorrhoeae ATCC 49226 after 24 hrs by broth microdilution susceptibility assay
Format: functional
Settings: ATCC 49226, 24 h

SMILES	MBC [µg/mL]
O=[N+]([O-])/C=C/c1ccc2c(c1)OCO2	2 (≈ 10.4 µM)
O=[N+]([O-])/C=C/c1c[nH]c2ccccc12	8 (≈ 42.5 µM)

Tested on: Micrococcus luteus
Assay: Antimicrobial activity against Micrococcus luteus Presque Isle 456 by broth microdilution susceptibility assay
Format: functional
Settings: not given

SMILES	MIC [µg/mL]
O=[N+]([O-])/C=C/c1ccc2c(c1)OCO2	64 (≈ 331 µM)
O=[N+]([O-])/C=C/c1c[nH]c2ccccc12	64 (≈ 340 µM)

Tested on: Cryptococcus neoformans
Assay: Antifungal activity against Cryptococcus neoformans ATCC 90112 after 72 hrs by broth microdilution susceptibility assay
Format: functional
Settings: ATCC 90112, 72 h

SMILES	MIC [µg/mL]
O=[N+]([O-])/C=C/c1ccc2c(c1)OCO2	8 (≈ 41.4 µM)
O=[N+]([O-])/C=C/c1c[nH]c2ccccc12	16 (≈ 85 µM)

Tested on: Staphylococcus aureus
Assay: Antimicrobial activity against Staphylococcus aureus ATCC 29213 by broth microdilution susceptibility assay
Format: functional
Settings: not given

SMILES	MIC [µg/mL]
O=[N+]([O-])/C=C/c1ccc2c(c1)OCO2	32 (≈ 166 µM)
O=[N+]([O-])/C=C/c1c[nH]c2ccccc12	64 (≈ 340 µM)

Tested on: Stenotrophomonas maltophilia
Assay: Antimicrobial activity against Stenotrophomonas maltophilia ATCC 13637 assessed clear zone in inhibition per disk by CLSI disk diffusion susceptibility assay
Format: functional
Settings: not given

SMILES	MIC [µg]
O=[N+]([O-])/C=C/c1ccc2c(c1)OCO2	6.25
O=[N+]([O-])/C=C/c1c[nH]c2ccccc12	25

Tested on: A498
Assay: Cytotoxicity against human A498 cells after 48 hrs by sulforhodamine B assay
Format: functional
Settings: not given

SMILES	GI50
O=[N+]([O-])/C=C/c1ccc2c(c1)OCO2	inactive
O=[N+]([O-])/C=C/c1c[nH]c2ccccc12	inactive

Tested on: not listed separately
Assay: Inhibition of tubulin polymerization
Settings: not given

SMILES	IC50 [µM]
O=[N+]([O-])/C=C/c1ccc2c(c1)OCO2	5.3
O=[N+]([O-])/C=C/c1c[nH]c2ccccc12	15

Tested on: OVCAR-3
Assay: Cytotoxicity against human OVCAR-3 cells after 48 hrs by sulforhodamine B assay
Format: functional
Settings: not given

SMILES	GI50
O=[N+]([O-])/C=C/c1ccc2c(c1)OCO2	inactive
O=[N+]([O-])/C=C/c1c[nH]c2ccccc12	inactive

Tested on: Escherichia coli
Assay: Antimicrobial activity against Escherichia coli ATCC 25922 assessed clear zone in inhibition per disk by CLSI disk diffusion susceptibility assay
Format: functional
Settings: not given

SMILES	MIC [µg]
O=[N+]([O-])/C=C/c1ccc2c(c1)OCO2	6.25
O=[N+]([O-])/C=C/c1c[nH]c2ccccc12	25

Tested on: Candida albicans
Assay: Antifungal activity against Candida albicans ATCC 90028 after 24 hrs by broth microdilution susceptibility assay
Format: functional
Settings: ATCC 90028, 24 h

SMILES	MFC [µg/mL]
O=[N+]([O-])/C=C/c1ccc2c(c1)OCO2	16 (≈ 82.8 µM)
O=[N+]([O-])/C=C/c1c[nH]c2ccccc12	64 (≈ 340 µM)

Tested on: Stenotrophomonas maltophilia
Assay: Antimicrobial activity against Stenotrophomonas maltophilia ATCC 13637 by broth microdilution susceptibility assay
Format: functional
Settings: not given

SMILES	MIC [µg/mL]
O=[N+]([O-])/C=C/c1ccc2c(c1)OCO2	64 (≈ 331 µM)
O=[N+]([O-])/C=C/c1c[nH]c2ccccc12	64 (≈ 340 µM)

Tested on: Enterococcus faecalis
Assay: Antimicrobial activity against Enterococcus faecalis ATCC 29212 after 24 hrs by broth microdilution susceptibility assay
Format: functional
Settings: ATCC 29212, 24 h

SMILES	MBC [µg/mL]
O=[N+]([O-])/C=C/c1ccc2c(c1)OCO2	> 64
O=[N+]([O-])/C=C/c1c[nH]c2ccccc12	> 64

Tested on: Micrococcus luteus
Assay: Antimicrobial activity against Micrococcus luteus Presque Isle 456 after 24 hrs by broth microdilution susceptibility assay
Format: functional
Settings: Presque Isle 456, 24 h

SMILES	MBC [µg/mL]
O=[N+]([O-])/C=C/c1ccc2c(c1)OCO2	> 64
O=[N+]([O-])/C=C/c1c[nH]c2ccccc12	> 64

Tested on: Cryptococcus neoformans
Assay: Antimicrobial activity against Cryptococcus neoformans ATCC 90112 assessed clear zone in inhibition per disk by CLSI disk diffusion susceptibility assay
Format: functional
Settings: not given

SMILES	MIC [µg]
O=[N+]([O-])/C=C/c1ccc2c(c1)OCO2	0.78
O=[N+]([O-])/C=C/c1c[nH]c2ccccc12	6.25

Tested on: Stenotrophomonas maltophilia
Assay: Antimicrobial activity against Stenotrophomonas maltophilia ATCC 13637 after 24 hrs by broth microdilution susceptibility assay
Format: functional
Settings: ATCC 13637, 24 h

SMILES	MBC [µg/mL]
O=[N+]([O-])/C=C/c1ccc2c(c1)OCO2	> 64
O=[N+]([O-])/C=C/c1c[nH]c2ccccc12	> 64

Tested on: Enterobacter cloacae
Assay: Antimicrobial activity against Enterobacter cloacae ATCC 13047 assessed clear zone in inhibition per disk by CLSI disk diffusion susceptibility assay
Format: functional
Settings: not given

SMILES	MIC [µg]
O=[N+]([O-])/C=C/c1ccc2c(c1)OCO2	12.5
O=[N+]([O-])/C=C/c1c[nH]c2ccccc12	>100

Tested on: SK-MEL-5
Assay: Cytotoxicity against human SK-MEL-5 cells after 48 hrs by sulforhodamine B assay
Format: functional
Settings: not given

SMILES	GI50
O=[N+]([O-])/C=C/c1ccc2c(c1)OCO2	inactive
O=[N+]([O-])/C=C/c1c[nH]c2ccccc12	inactive

Tested on: KM-20L2
Assay: Cytotoxicity against human KM20L2 cells after 48 hrs by sulforhodamine B assay
Format: functional
Settings: KM-20L2, 48 h

SMILES	GI50 [µg/mL]
O=[N+]([O-])/C=C/c1ccc2c(c1)OCO2	1.8 (≈ 9.32 µM)
O=[N+]([O-])/C=C/c1c[nH]c2ccccc12	1.4 (≈ 7.44 µM)

Tested on: NCI-H460
Assay: Cytotoxicity against human NCI-H460 cells after 48 hrs by sulforhodamine B assay
Format: functional
Settings: NCI-H460, 48 h

SMILES	GI50 [µg/mL]
O=[N+]([O-])/C=C/c1ccc2c(c1)OCO2	2 (≈ 10.4 µM)
O=[N+]([O-])/C=C/c1c[nH]c2ccccc12	1.6 (≈ 8.5 µM)

Tested on: Cryptococcus neoformans
Assay: Antifungal activity against Cryptococcus neoformans ATCC 90112 after 48 hrs by broth microdilution susceptibility assay
Format: functional
Settings: ATCC 90112, 48 h

SMILES	MFC [µg/mL]
O=[N+]([O-])/C=C/c1ccc2c(c1)OCO2	16 (≈ 82.8 µM)
O=[N+]([O-])/C=C/c1c[nH]c2ccccc12	32 (≈ 170 µM)
